Laboratory results published in ChEMBL document CHEMBL2069296, “A novel series of G-quadruplex ligands with selectivity for HIF-expressing osteosarcoma and renal cancer cell lines” (Bioorg Med Chem Lett, 2012).
Calls of active or inactive are those of the source. The rule behind the calls is not given here.

How the values were obtained:
Nucleic Acid [1] = experiment: Binding affinity to HIF1alpha DNA by surface plasmon resonance assay; assay type: nucleic-acid assay
Nucleic Acid [2] = experiment: Binding affinity to HIF2alpha DNA by surface plasmon resonance assay; assay type: nucleic-acid assay
Nucleic Acid [3] = experiment: Binding affinity to 5'-GGGGCGGGCACGGGGCGGG-3' DNA by surface plasmon resonance; assay type: nucleic-acid assay
Nucleic Acid [4] = experiment: Binding affinity to HIF1alpha DNA in by circular dichroism; assay type: nucleic-acid assay
HOS = experiment: Antiproliferative activity against human HOS cells after 96 hrs by SRB assay; assay type: functional, cell-based
MG-63 = experiment: Antiproliferative activity against human MG63 cells after 96 hrs by SRB assay; assay type: functional, cell-based; details: MG-63, 96 h
HOS-TE85 = experiment: Antiproliferative activity against human MNNG-HOS cells after 96 hrs by SRB assay; assay type: functional, cell-based; details: HOS-TE85, 96 h
U2OS [5] = experiment: Antiproliferative activity against human U2OS cells after 96 hrs by SRB assay; assay type: functional, cell-based
SAOS-2 = experiment: Antiproliferative activity against human Saos2 cells after 96 hrs by SRB assay; assay type: functional, cell-based; details: SAOS-2, 96 h
OST = experiment: Antiproliferative activity against human OST cells after 96 hrs by SRB assay; assay type: functional, cell-based
[6] = Antiproliferative activity against human TC71 cells after 96 hrs by SRB assay; assay type: functional, cell-based; details: TC-71, 96 h
[7] = Antiproliferative activity against human TC32 cells after 96 hrs by SRB assay; assay type: functional, cell-based; details: TC-32, 96 h
MCF7 = experiment: Antiproliferative activity against human MCF7 cells after 96 hrs by SRB assay; assay type: functional, cell-based; details: MCF7, 96 h
A549 = experiment: Antiproliferative activity against human A549 cells after 96 hrs by SRB assay; assay type: functional, cell-based; details: A549, 96 h
MIA PaCa-2 = experiment: Antiproliferative activity against human MIAPaCa2 cells after 96 hrs by SRB assay; assay type: functional, cell-based; details: MIA PaCa-2, 96 h
PANC-1 = experiment: Antiproliferative activity against human PANC1 cells after 96 hrs by SRB assay; assay type: functional, cell-based; details: PANC-1, 96 h
HPAC = experiment: Antiproliferative activity against human HPAC cells after 96 hrs by SRB assay; assay type: functional, cell-based
PC-3 = experiment: Antiproliferative activity against human PC3 cells after 96 hrs by SRB assay; assay type: functional, cell-based; details: PC-3, 96 h
[8] = Antiproliferative activity against human 786-O cells after 96 hrs by SRB assay; assay type: functional, cell-based; details: 786-0, 96 h
A498 = experiment: Antiproliferative activity against human A498 cells after 96 hrs by SRB assay; assay type: functional, cell-based; details: A498, 96 h
[9] = Antiproliferative activity against human RCC4 cells after 96 hrs by SRB assay; assay type: functional, cell-based; details: RCC4, 96 h
[10] = Antiproliferative activity against human RCC4/VHL cells after 96 hrs by SRB assay; assay type: functional, cell-based
[11] = Ratio of IC50 for human RCC4/VHL cells to IC50 for human RCC4 cells; assay type: functional
[12] = Ratio of cell viability in human RCC4/VHL cells to cell viability in human RCC4 cells in hypoxia condition; assay type: functional
[13] = target: Hypoxia-inducible factor 1-alpha (Homo sapiens) (UniProt Q16665); experiment: Inhibition of HIF1alpha in human U2OS cells in normaxia condition; assay type: cell-based
Hypoxia-inducible factor 1-alpha (Homo sapiens), sequence (Q16665 whole entry, looked up): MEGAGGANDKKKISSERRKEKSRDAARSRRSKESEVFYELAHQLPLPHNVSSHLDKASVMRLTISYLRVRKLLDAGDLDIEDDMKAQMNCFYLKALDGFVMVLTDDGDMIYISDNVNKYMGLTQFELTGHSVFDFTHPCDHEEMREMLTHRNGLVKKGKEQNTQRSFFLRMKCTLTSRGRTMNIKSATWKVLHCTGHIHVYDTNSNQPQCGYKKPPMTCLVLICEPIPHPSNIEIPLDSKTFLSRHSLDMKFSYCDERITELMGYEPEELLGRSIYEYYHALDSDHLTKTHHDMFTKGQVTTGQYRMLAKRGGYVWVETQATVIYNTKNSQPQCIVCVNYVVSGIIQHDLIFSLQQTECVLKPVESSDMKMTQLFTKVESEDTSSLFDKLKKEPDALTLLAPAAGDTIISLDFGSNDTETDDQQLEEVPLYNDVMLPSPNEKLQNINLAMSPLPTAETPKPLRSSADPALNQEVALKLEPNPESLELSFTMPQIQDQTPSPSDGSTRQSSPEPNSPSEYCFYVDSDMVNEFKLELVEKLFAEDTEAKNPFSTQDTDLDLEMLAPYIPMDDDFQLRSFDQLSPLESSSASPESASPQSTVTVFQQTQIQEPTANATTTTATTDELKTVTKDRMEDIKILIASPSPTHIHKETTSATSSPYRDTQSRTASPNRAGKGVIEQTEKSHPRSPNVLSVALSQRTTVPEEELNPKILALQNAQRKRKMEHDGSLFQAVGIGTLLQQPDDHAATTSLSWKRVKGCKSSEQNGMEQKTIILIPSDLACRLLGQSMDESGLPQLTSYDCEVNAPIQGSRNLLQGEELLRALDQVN

[14] = target: Hypoxia-inducible factor 1-alpha (Homo sapiens) (UniProt Q16665); experiment: Inhibition of HIF1alpha in human U2OS cells in hypoxia condition; assay type: cell-based
U2OS [15] = experiment: Downregulation of HIF1alpha protein level in human U2OS cells at 5 fold IC50 concentration within 2 hrs by Western blot analysis; assay type: functional, cell-based
U2OS [16] = experiment: Downregulation of HIF1alpha mRNA level in human U2OS cells at 5 fold IC50 concentration after 4 hrs by RT-PCR analysis relative to untreated control; assay type: functional
[17] = target: T1, Hypoxia inducible factors; HIF-1-alpha, HIF-2-alpha (Homo sapiens) (UniProt Q16665+Q99814); experiment: Inhibition of HIF1 transactivation in human U2OS cells after 4 hrs by luciferase reporter gene assay; assay type: cell-based
[18] = target: T1, Hypoxia inducible factors; HIF-1-alpha, HIF-2-alpha (Homo sapiens); experiment: Inhibition of HIF1 transactivation in human U2OS cells after 4 hrs by luciferase reporter gene assay relative to untreated control; assay type: cell-based; details: concentration not given here
[19] = Antiproliferative activity against human TC135 cells after 96 hrs by SRB assay; assay type: functional, cell-based; details: TC135, 96 h
[20] = Therapeutic index, ratio of IC50 for human MG63 cells to IC50 for human WI38 cells; assay type: cell-based, WI-38; details: MG63 cells and WI38 cells, read-out: Ratio IC50
[21] = Therapeutic index, ratio of IC50 for human MNNG-HOS cells to IC50 for human WI38 cells; assay type: cell-based, HOS-TE85; details: MNNG-HOS cells and WI38 cells, read-out: Ratio IC50
[22] = Therapeutic index, ratio of IC50 for human U2OS cells to IC50 for human WI38 cells; assay type: cell-based; details: U2OS cells and WI38 cells, read-out: Ratio IC50
[23] = Therapeutic index, ratio of IC50 for human OST cells to IC50 for human WI38 cells; assay type: cell-based; details: OST cells and WI38 cells, read-out: Ratio IC50
[24] = Therapeutic index, ratio of IC50 for human TC135 cells to IC50 for human WI38 cells; assay type: cell-based; details: TC135 cells and WI38 cells, read-out: Ratio IC50
[25] = Therapeutic index, ratio of IC50 for human A549 cells to IC50 for human WI38 cells; assay type: cell-based; details: A549 cells and WI38 cells, read-out: Ratio IC50
[26] = Therapeutic index, ratio of IC50 for human MIAPaCa2 cells to IC50 for human WI38 cells; assay type: cell-based, MIA PaCa-2; details: MIAPaCa2 cells and WI38 cells, read-out: Ratio IC50
[27] = Therapeutic index, ratio of IC50 for human 786-O cells to IC50 for human WI38 cells; assay type: cell-based, WI-38; details: 786-O cells and WI38 cells, read-out: Ratio IC50
[28] = Therapeutic index, ratio of IC50 for human A498 cells to IC50 for human WI38 cells; assay type: cell-based; details: A498 cells and WI38 cells, read-out: Ratio IC50
WI-38 = experiment: Cytotoxicity against human WI38 after 96 hrs by SRB assay; assay type: cell-based; details: WI-38, 96 h

Compound `CCN(CC)CC(=O)Nc1cccc(-n2cc(-c3ccc4ccc(-c5cn(-c6cccc(NC(=O)CN(CC)CC)c6)nn5)cc4c3)nn2)c1` has a K (Nucleic Acid [1]) of 0.29 ×10⁷ /M, a K (Nucleic Acid [2]) of 0.27 ×10⁷ /M and a K (Nucleic Acid [3]) of less than 100000 M⁻¹. The Activity (Nucleic Acid [4]) was “Active”, the IC50 (HOS) was 2.4 µM and the IC50 (MG-63) was 7.9 µM. The IC50 (HOS-TE85) was 3.2 µM, the IC50 (U2OS [5]) was 5.5 µM and the IC50 (SAOS-2) was 2.6 µM. The IC50 (OST) was 2.6 µM, the IC50 [6] was 7.8 µM and the IC50 [7] was 0.9 µM. The IC50 (MCF7) was 63 µM, the IC50 (A549) was 60 µM and the IC50 (MIA PaCa-2) was 16.8 µM. For the same compound, the IC50 (PANC-1) was 31 µM, the IC50 (HPAC) was 7.3 µM and the IC50 (PC-3) was 8.05 µM. The IC50 [8] was 2.3 µM, the IC50 (A498) was 2.5 µM and the IC50 [9] was 1.3 µM. For the same compound, the IC50 [10] was 2.6 µM, the “Ratio IC50” value [11] was 2 and the Ratio [12] was 2.1. For the same compound, the inhibition [13] was “Dose-dependent effect”, the inhibition [14] was “Dose-dependent effect” and the Activity (U2OS [15]) was “Active”. For the same compound, the Activity (U2OS [16]) was 79.7%, the inhibition [17] was “Dose-dependent effect” and the inhibition [18] was 7%. It also gave an IC50 [19] of 2.4 µM, a selectivity ratio [20] of 40 and a selectivity ratio [21] of 40. For the same compound, the selectivity ratio [22] was 40, the selectivity ratio [23] was 40 and the selectivity ratio [24] was 40. It also gave a selectivity ratio [25] of 40, a selectivity ratio [26] of 40 and a selectivity ratio [27] of 40. For the same compound, the selectivity ratio [28] was 40 and the IC50 (WI-38) was 91 µM.
